Results: patent US8889881B2, “Compound having skin-whitening, anti-oxidizing and PPAR activities and medical use therefor” (Pusan National University Industry —University Cooperation …, priority 2011, dated 2014)
Entries after “also recorded” stand apart in the source; their conditions may differ. One block for each compound: values may come before it.

Tests used:
[1] = target: T1, PPAR gamma-LBD (Homo sapiens, UniProt P37231); test: PPAR assay, PPARγ; assay type: binding; conditions: sample final concentration 100 μM; positive control rosiglitazone; FIGS. 7 and 8
T1 sequence (P37231 238-503 limits assumed): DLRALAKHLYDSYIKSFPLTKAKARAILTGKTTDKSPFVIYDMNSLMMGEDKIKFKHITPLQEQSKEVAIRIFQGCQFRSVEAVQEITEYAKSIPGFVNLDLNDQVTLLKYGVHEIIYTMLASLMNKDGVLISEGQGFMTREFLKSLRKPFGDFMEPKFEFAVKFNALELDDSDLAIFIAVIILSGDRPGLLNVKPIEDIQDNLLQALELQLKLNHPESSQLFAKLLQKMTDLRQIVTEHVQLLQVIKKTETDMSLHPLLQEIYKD

[2] = target: T2, PPAR alpha-LBD (Homo sapiens, UniProt Q07869); test: PPAR assay, PPARα; conditions: for PPARα activation (competitive activation rate), compared with fenofibrate: sample final concentration 100 μM, positive control fenofibrate, FIGS. 5 and 6; for simultaneous activation of PPARα and PPARγ: summary of the PPARα and PPARγ assays, sample 100 μM
T2 sequence (Q07869 239-466 limits assumed): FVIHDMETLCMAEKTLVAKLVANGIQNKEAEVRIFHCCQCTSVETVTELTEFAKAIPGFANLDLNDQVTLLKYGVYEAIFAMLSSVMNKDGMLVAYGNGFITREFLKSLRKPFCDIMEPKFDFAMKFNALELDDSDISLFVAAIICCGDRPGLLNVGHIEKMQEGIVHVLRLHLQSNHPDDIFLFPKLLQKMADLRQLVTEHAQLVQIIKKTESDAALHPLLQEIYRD

SMILES: O=C(O)[C@@H]1CSC(c2ccc(O)cc2)N1 (mixture of isomers) [Compound 1, (2R/S,4R)-2-(4-hydroxyphenyl)thiazolidine-4-carboxylic acid]
melting point: 161.8 to 164.4 °C

SMILES: CCOc1cc(C2N[C@H](C(=O)O)CS2)ccc1O (mixture of isomers) [Compound 5, (2R/S,4R)-2-(3-ethoxy-4-hydroxyphenyl)thiazolidine-4-carboxylic acid]
melting point: 174.3 to 175.9 °C

SMILES: COc1ccc(C2N[C@H](C(=O)O)CS2)cc1OC (mixture of isomers) [Compound 8, (2R/S,4R)-2-(3,4-dimethoxyphenyl)thiazolidine-4-carboxylic acid]
melting point: 173.6 to 175.4 °C

SMILES: COc1cc(C2N[C@H](C(=O)O)CS2)cc(OC)c1OC (mixture of isomers) [Compound 11, (2R/S,4R)-2-(3,4,5-trimethoxyphenyl)thiazolidine-4-carboxylic acid]
melting point: 197 to 199.7 °C

SMILES: COc1cc(C2N[C@H](C(=O)O)CS2)cc(OC)c1O (mixture of isomers) [Compound 12, (2R/S,4R)-2-(4-hydroxy-3,5-dimethoxyphenyl)thiazolidine-4-carboxylic acid]
melting point: 139.6 to 141 °C

SMILES: Oc1cc(O)cc(-c2nc3cc(C(F)(F)F)ccc3s2)c1 [Compound 36, 5-(5-(trifluoromethyl)benzo[d]thiazol-2-yl)benzene-1,3-diol]
melting point: 256.7 to 260.6 °C

SMILES: COc1ccc(-c2nc3cc(C(F)(F)F)ccc3s2)c(OC)c1 [Compound 37, 2-(2,4-dimethoxyphenyl)-5-(trifluoromethyl)benzo[d]thiazole]
melting point: 140.4 to 141.6 °C

SMILES: COc1cc(-c2nc3cc(C(F)(F)F)ccc3s2)cc(OC)c1OC [Compound 39, 5-(trifluoromethyl)-2-(3,4,5-trimethoxyphenyl)benzo[d]thiazole]
melting point: 132.5 to 134 °C

SMILES: Oc1ccc(-c2nc3ccccc3[nH]2)cc1 [Compound 43, 4-(1H-benzo[d]imidazol-2-yl)phenol]
PPARγ activation (competitive activation rate), compared with rosiglitazone [1]: very excellent PPARγ activation agent compared to rosiglitazone
PPARα activation (competitive activation rate), compared with fenofibrate [2]: very excellent PPARα activation agent compared to fenofibrate
simultaneous activation of PPARα and PPARγ [2]: simultaneously activates PPARα and PPARγ

SMILES: COc1cc(-c2nc3ccccc3[nH]2)cc(OC)c1OC [Compound 54, 2-(3,4,5-trimethoxyphenyl)-1H-benzo[d]imidazole]
melting point: 257 to 257.7 °C

SMILES: Oc1ccc(-c2nc3ccccc3[nH]2)cc1Br [Compound 56, 4-(1H-benzo[d]imidazol-2-yl)-2-bromophenol]
PPARγ activation (competitive activation rate), compared with rosiglitazone [1]: very excellent PPARγ activation agent compared to rosiglitazone

SMILES: O=C(O)c1ccc2[nH]c(-c3ccc(O)cc3)nc2c1 [Compound 57, 2-(4-hydroxyphenyl)-1H-benzo[d]imidazole-5-carboxylic acid]
melting point: > 300 °C

SMILES: COc1cc(-c2nc3cc(C(=O)O)ccc3[nH]2)ccc1O [Compound 60, 2-(4-hydroxy-3-methoxyphenyl)-1H-benzo[d]imidazole-5-carboxylic acid]
melting point: > 300 °C

SMILES: COc1ccc(-c2nc3cc(C(=O)O)ccc3[nH]2)cc1O [Compound 62, 2-(3-hydroxy-4-methoxyphenyl)-1H-benzo[d]imidazole-5-carboxylic acid]
melting point: 246.6 to 247.7 °C

SMILES: COc1cc(-c2nc3cc(C(=O)O)ccc3[nH]2)cc(OC)c1O [Compound 68, 2-(4-hydroxy-3,5-dimethoxyphenyl)-1H-benzo[d]imidazole-5-carboxylic acid]
melting point: 280 to 281.4 °C

SMILES: Oc1cc(O)cc(-c2nc3cc(Cl)ccc3s2)c1 [Compound 90, 5-(5-chlorobenzo[d]thiazol-2-yl)benzene-1,3-diol]
melting point: 129.6 to 130.6 °C

SMILES: COc1ccc(-c2nc3cc(Cl)ccc3s2)c(OC)c1 [Compound 91, 5-chloro-2-(2,4-dimethoxyphenyl)benzo[d]thiazole]
melting point: 138.6 to 140.3 °C

SMILES: COc1cc(-c2nc3cc(Cl)ccc3s2)cc(OC)c1OC [Compound 93, 5-chloro-2-(3,4,5-trimethoxyphenyl)benzo[d]thiazole]
melting point: 159.4 to 160 °C

SMILES: c1ccc(COc2ccc(-c3nc4ccccc4[nH]3)cc2)cc1 [Compound 114, 2-(4-(benzyloxy)phenyl)-1H-benzo[d]imidazole]
PPARα activation (competitive activation rate), compared with fenofibrate [2]: very excellent PPARα activation agent compared to fenofibrate

Second part, led by results:

simultaneous activation of PPARα and PPARγ [2]: simultaneously activates PPARα and PPARγ
SMILES: COc1cc(-c2nc3ccccc3s2)ccc1O [Compound 16, 4-(benzo[d]thiazol-2-yl)-2-methoxyphenol]
PPARγ activation (competitive activation rate), compared with rosiglitazone [1]: very excellent PPARγ activation agent compared to rosiglitazone
PPARα activation (competitive activation rate), compared with fenofibrate [2]: very excellent PPARα activation agent compared to fenofibrate

simultaneous activation of PPARα and PPARγ [2]: simultaneously activates PPARα and PPARγ
SMILES: CCOc1cc(-c2nc3ccccc3s2)ccc1O [Compound 17, 4-(benzo[d]thiazol-2-yl)-2-ethoxyphenol]
PPARγ activation (competitive activation rate), compared with rosiglitazone [1]: very excellent PPARγ activation agent compared to rosiglitazone
PPARα activation (competitive activation rate), compared with fenofibrate [2]: very excellent PPARα activation agent compared to fenofibrate

melting point: 274.5 to 276.5 °C
SMILES: Oc1cc(O)cc(-c2nc3ccccc3s2)c1 [Compound 21, 5-(benzo[d]thiazol-2-yl)benzene-1,3-diol]

melting point: 137.4 to 138.9 °C
SMILES: COc1ccc(-c2nc3ccccc3s2)c(OC)c1 [Compound 22, 2-(2,4-dimethoxyphenyl)benzo[d]thiazole]

simultaneous activation of PPARα and PPARγ [2]: simultaneously activates PPARα and PPARγ
SMILES: Oc1ccc(-c2nc3ccccc3s2)cc1Br [Compound 26, 4-(benzo[d]thiazol-2-yl)-2-bromophenol]
PPARγ activation (competitive activation rate), compared with rosiglitazone [1]: the most excellent PPARγ activation agent; also recorded: very excellent PPARγ activation agent compared to rosiglitazone
PPARα activation (competitive activation rate), compared with fenofibrate [2]: the most excellent PPARα activation agent; also recorded: very excellent PPARα activation agent compared to fenofibrate

melting point: 142.1 to 144.5 °C
SMILES: COc1ccc(-c2nc3cc(C(F)(F)F)ccc3s2)cc1O [Compound 33, 2-methoxy-5-(5-(trifluoromethyl)benzo[d]thiazol-2-yl)phenol]

melting point: 120.4 to 121.6 °C
SMILES: COc1ccc(-c2nc3cc(C(F)(F)F)ccc3s2)cc1OC [Compound 35, 2-(3,4-dimethoxyphenyl)-5-(trifluoromethyl)benzo[d]thiazole]

melting point: 175 to 176.5 °C
SMILES: Oc1ccccc1-c1nc2cc(C(F)(F)F)ccc2s1 [Compound 38, 2-(5-(trifluoromethyl)benzo[d]thiazol-2-yl)phenol]

simultaneous activation of PPARα and PPARγ [2]: simultaneously activates PPARα and PPARγ
SMILES: CCOc1cc(-c2nc3ccccc3[nH]2)ccc1O [Compound 47, 4-(1H-benzo[d]imidazol-2-yl)-2-ethoxyphenol]
PPARγ activation (competitive activation rate), compared with rosiglitazone [1]: very excellent PPARγ activation agent compared to rosiglitazone
PPARα activation (competitive activation rate), compared with fenofibrate [2]: very excellent PPARα activation agent compared to fenofibrate

melting point: > 300 °C
SMILES: CCOc1cc(-c2nc3cc(C(=O)O)ccc3[nH]2)ccc1O [Compound 61, 2-(3-ethoxy-4-hydroxyphenyl)-1H-benzo[d]imidazole-5-carboxylic acid]

melting point: 277.9 to 280.1 °C
SMILES: Oc1ccc(-c2nc3cc(Cl)ccc3s2)c(O)c1 [Compound 84, 4-(5-chlorobenzo[d]thiazol-2-yl)benzene-1,3-diol]

melting point: 158.2 to 158.6 °C
SMILES: COc1ccc(-c2nc3cc(Cl)ccc3s2)cc1O [Compound 87, 5-(5-chlorobenzo[d]thiazol-2-yl)-2-methoxyphenol]

melting point: 165.2 to 167.1 °C
SMILES: COc1ccc(-c2nc3cc(Cl)ccc3s2)cc1OC [Compound 89, 5-chloro-2-(3,4-dimethoxyphenyl)benzo[d]thiazole]

melting point: 194.2 to 195.7 °C
SMILES: Oc1ccccc1-c1nc2cc(Cl)ccc2s1 [Compound 92, 2-(5-chlorobenzo[d]thiazol-2-yl)phenol]

melting point: 166.1 to 167.2 °C
SMILES: c1ccc(COc2ccc(-c3nc4ccccc4s3)cc2)cc1 [Compound 107, 2-(4-(benzyloxy)phenyl)benzo[d]thiazole]

melting point: 194.3 to 195.1 °C
SMILES: FC(F)(F)c1ccc2sc(-c3ccc(OCc4ccccc4)cc3)nc2c1 [Compound 108, 2-(4-(benzyloxy)phenyl)-5-(trifluoromethyl)benzo[d]thiazole]

melting point: 142.7 to 143.3 °C
SMILES: Clc1ccc2sc(-c3ccc(OCc4ccccc4)cc3)nc2c1 [Compound 109, 2-(4-(benzyloxy)phenyl)-5-chlorobenzo[d]thiazole]

melting point: 121.5 to 122.1 °C
SMILES: c1ccc(COc2cccc(-c3nc4ccccc4s3)c2)cc1 [Compound 110, 2-(3-(benzyloxy)phenyl)benzo[d]thiazole]

melting point: 93.8 to 95.1 °C
SMILES: FC(F)(F)c1ccc2sc(-c3cccc(OCc4ccccc4)c3)nc2c1 [Compound 111, 2-(3-(Benzyloxy)phenyl)-5-(trifluoromethyl)benzo[d]thiazole]
